{"source": "patent US20250177566A1", "about": "“USE OF CHEMICAL EPIGENETIC MODIFIERS TO MODULATE GENE EXPRESSION” (The University of North Carolina at Chapel Hill, priority 2022, published 2025)", "key": {"TRE3G-GFP reporter gene [1]": {"tested_on": "TRE3G-GFP reporter gene", "test": "TRE3G-GFP reporter gene activation in HCT116, dCas9 + MS2-FKBP*x2 (F36V) system, flow cytometry", "assay_type": "cell-based, human", "design": "fold change, GFP: reference not given here", "settings": "for fold change, GFP (Treated vs Non-Treated): FIG. 1E, 48 hours; for fold change, GFP: 48 hrs"}, "TRE3G-GFP reporter gene [2]": {"tested_on": "TRE3G-GFP reporter gene", "settings": "WT FKBP (MS2-FKBPx2), 48 hrs", "protocol": "HCT116 cells were transfected with TRE3G-GFP, dCas9, MS2-FKPB*x2, and TRE3G gRNA or NT gRNA. After 48 hrs of 10 nM SLF*-CEMa treatment, flow cytometry was performed and mean fluorescent value was collected. […] TRE3G-GFP, dCas9, MS2-FKBP*2, TRE3G gRNA or NT gRNA were transfected into HCT116 cells. The media was changed to media with 5 nM CEM207 together with 0 nM, 50 nM, 500 nM or 5000 nM of AP1867, respectively. After 48 hrs chemical exposure, flow cytometry was performed and the mean fluorescent value was measured in each group of cells. […] FIGS. 5D and 5E are dose curves of CEMa molecules activating the GFP reporter gene in HCT116 cells using WT FKBP and dCas9 as DNA binding module. HCT116 cells were transfected with dCas9, MS2-FKBPx2, TRE3G-GFP constructs, along with TRE3G gRNA or NT gRNA. Cells were treated with different concentrations of CEMa molecules for 48 hrs before flow cytometry was conducted. […] Error bars represent the standard deviation.\nTo better understand the activity of SLF*-CEMa in the WT FKBP-based GFP reporter assay, a similar dose-response assay was conducted in HCT116 cells transfected with dCas9 and MS2-FKBPx2 (FIGS. 1D and 1E).\nFlow cytometry. All flow cytometry experiments were performed with Attune Nxt as previously described. […] Significance was determined by Student's t-test."}, "CXCR4": {"tested_on": "CXCR4", "test": "CXCR4 mRNA activation in HCT116 stably expressing dCas9 and MS2-FKBP*x2, qRT-PCR", "assay_type": "cell-based, human", "settings": "FIG. 2C; 5 nM; 48 hrs", "procedure": "To further explore the activation potential of the SLF*-CEMa, their ability to target endogenous genes was evaluated (FIGS. 2A and 2B). Lentivirus was used to establish a stable HCT116 cell line expressing dCas9 and MS2-FKBP*x2 constructs, selecting for cells with antibiotic resistance. […] All CEMs were screened for their ability to activate the CXCR4 gene at 5 nM (FIG. 2C). RNA extraction and quantitative RT-PCR (qRT-PCR) were performed after 48 hours of CEM treatment.\nTo determine the optimal treatment concentration of the SLF*-CEMa molecules in this context, HCT116 cells were treated with 1 nM, 5 nM, 25 nM, and 50 nM of CEM203, CEM207, or CEM87. […] After 48 hours, RNA extraction followed by qRT-PCR was performed to evaluate the change in mRNA expression of CXCR4 (FIG. 2D). […] To directly compare this induced activation to other CRISPR-Cas9-based epigenetic activators, dCas9-VPR and dCas9-p300 constructs were virally infected into HCT116 cells and CXCR4 activation assessed in a similar fashion (FIGS. 2A and 2B).\nTo determine the time at which SLF*-CEMa most effectively induces gene activation, CXCR4 gene expression changes over time were investigated in dCas9 and MS2-FKBP*x2 stably infected HCT116 cells. Cells were treated with either vehicle, […] (FIG. 3A). RNA extraction and qRT-PCR were performed at 12, 24, 48, 72, and 96 hrs time points (FIG. 3B).\nTo investigate if endogenous gene activation triggered by the SLF*-CEMa compounds is also reversible, HCT116 cells were treated with CEM203 (50 nM) or CEM207 (25 nM) for 24 hours after transfecting CXCR4 gRNA, and then the CEMs were removed by media exchange at various time points. […] Likewise, it was investigated whether treatment with excess AP1867 could further reverse gene activation, potentially in a more robust fashion than with washout alone if there is any remaining intracellular SLF*-CEMa. To test this, after 24 hours of SLF*-CEMa treatment, a media exchange containing 20 μM AP1867 was performed (FIGS. 3C and 3D).\nRNA extraction and qRT-PCR. All RNA extraction experiments were conducted in 12-well plate format. Culturing medium was removed, and cells were washed with 1×PBS, following with 0.05% trypsin to disassociate. After being quenched by medium and centrifuged, cells were washed with 1×PBS, and the RNA extraction was performed by using RNeasy Plus Mini kit (Qiagen, 74134). RT-qPCR was conducted by using RNA-to CT 1-step kit (Thermo Fisher Scientific, 4389986). The primer sets used in quantifying each gene can be found in Table 4."}}, "note": "Read-outs that look alike come from different tables or passages of the source."}
{"smiles": "CC[C@H](C(=O)N1CCCC[C@H]1C(=O)O[C@H](CCc1ccc(OC)c(OC)c1)c1cccc(OCC(=O)NCCOCCOCCOCCNC(=O)C[C@@H]2N=C(c3ccc(Cl)cc3)c3cc(OC)ccc3-n3c(C)nnc32)c1)c1cc(OC)c(OC)c(OC)c1", "note": "[CEM202, (1R)-1-(3-((17-((4S)-6-(4-Chlorophenyl)-8-methoxy-1-methyl-4/I-benzo[f][1,2,4]triazolo[4,3-a][1,4]diazepin-4-yl)-2,16-dioxo-6,9,12-trioxa-3,15-diazaheptadecyl)oxy)phenyl)-3-(3,4-dimethoxyphenyl) propyl (2S)-1-((S)-2-(3,4,5-trimethoxyphenyl)butanoyl) piperidine-2-carboxylate]", "values": [{"measurement": "fold change, GFP (Treated vs Non-Treated)", "setting": "TRE3G-GFP reporter gene [1]; TRE3G gRNA, 0.25 nM", "result": 1.1, "unit": "fold"}, {"measurement": "fold change, GFP (Treated vs Non-Treated)", "setting": "TRE3G-GFP reporter gene [1]; TRE3G gRNA, 0.5 nM", "result": 1.3, "unit": "fold"}, {"measurement": "fold change, GFP (Treated vs Non-Treated)", "setting": "TRE3G-GFP reporter gene [1]; TRE3G gRNA, 0.75 nM", "result": 1.3, "unit": "fold"}, {"measurement": "fold change, GFP (Treated vs Non-Treated)", "setting": "TRE3G-GFP reporter gene [1]; TRE3G gRNA, 1 nM", "result": 1.5, "unit": "fold"}, {"measurement": "fold change, GFP (Treated vs Non-Treated)", "setting": "TRE3G-GFP reporter gene [1]; TRE3G gRNA, 2.5 nM", "result": 2.8, "unit": "fold"}, {"measurement": "fold change, GFP (Treated vs Non-Treated)", "setting": "TRE3G-GFP reporter gene [1]; TRE3G gRNA, 5 nM", "result": 12.5, "unit": "fold"}, {"measurement": "fold change, GFP (Treated vs Non-Treated)", "setting": "TRE3G-GFP reporter gene [1]; TRE3G gRNA, 7.5 nM", "result": 13.9, "unit": "fold"}, {"measurement": "fold change, GFP (Treated vs Non-Treated)", "setting": "TRE3G-GFP reporter gene [1]; TRE3G gRNA, 10 nM", "result": 15.0, "unit": "fold"}, {"measurement": "fold change, GFP (Treated vs Non-Treated)", "setting": "TRE3G-GFP reporter gene [1]; TRE3G gRNA, 25 nM", "result": 22.0, "unit": "fold"}, {"measurement": "fold change, GFP (Treated vs Non-Treated)", "setting": "TRE3G-GFP reporter gene [1]; TRE3G gRNA, 50 nM", "result": 28.8, "unit": "fold"}, {"measurement": "fold change, GFP (Treated vs Non-Treated)", "setting": "TRE3G-GFP reporter gene [1]; TRE3G gRNA, 75 nM", "result": 27.1, "unit": "fold"}, {"measurement": "fold change, GFP (Treated vs Non-Treated)", "setting": "TRE3G-GFP reporter gene [1]; TRE3G gRNA, 100 nM", "result": 25.5, "unit": "fold"}, {"measurement": "fold change, GFP", "setting": "TRE3G-GFP reporter gene [1]; FIG. 5A, NT gRNA, 10 nM", "result": 0.5, "unit": "fold"}, {"measurement": "fold change, GFP", "setting": "TRE3G-GFP reporter gene [1]; FIG. 5A, TRE3G gRNA, 10 nM", "result": 8.4, "unit": "fold"}, {"measurement": "fold change, GFP", "setting": "TRE3G-GFP reporter gene [1]; FIG. 5C, NT gRNA, 0.25 nM", "result": 1.0, "unit": "fold"}, {"measurement": "fold change, GFP", "setting": "TRE3G-GFP reporter gene [1]; FIG. 5C, NT gRNA, 0.5 nM", "result": 1.0, "unit": "fold"}, {"measurement": "fold change, GFP", "setting": "TRE3G-GFP reporter gene [1]; FIG. 5C, NT gRNA, 0.75 nM", "result": 1.1, "unit": "fold"}, {"measurement": "fold change, GFP", "setting": "TRE3G-GFP reporter gene [1]; FIG. 5C, NT gRNA, 1 nM", "result": 1.0, "unit": "fold"}, {"measurement": "fold change, GFP", "setting": "TRE3G-GFP reporter gene [1]; FIG. 5C, NT gRNA, 2.5 nM", "result": 1.0, "unit": "fold"}, {"measurement": "fold change, GFP", "setting": "TRE3G-GFP reporter gene [1]; FIG. 5C, NT gRNA, 5 nM", "result": 1.1, "unit": "fold"}, {"measurement": "fold change, GFP", "setting": "TRE3G-GFP reporter gene [1]; FIG. 5C, NT gRNA, 7.5 nM", "result": 1.1, "unit": "fold"}, {"measurement": "fold change, GFP", "setting": "TRE3G-GFP reporter gene [1]; FIG. 5C, NT gRNA, 10 nM", "result": 1.2, "unit": "fold"}, {"measurement": "fold change, GFP", "setting": "TRE3G-GFP reporter gene [1]; FIG. 5C, NT gRNA, 25 nM", "result": 1.3, "unit": "fold"}, {"measurement": "fold change, GFP", "setting": "TRE3G-GFP reporter gene [1]; FIG. 5C, NT gRNA, 50 nM", "result": 1.4, "unit": "fold"}, {"measurement": "fold change, GFP", "setting": "TRE3G-GFP reporter gene [1]; FIG. 5C, NT gRNA, 75 nM", "result": 1.4, "unit": "fold"}, {"measurement": "fold change, GFP", "setting": "TRE3G-GFP reporter gene [1]; FIG. 5C, NT gRNA, 100 nM", "result": 1.4, "unit": "fold"}, {"measurement": "fold change, GFP (Treated vs Non-Treated)", "setting": "TRE3G-GFP reporter gene [2]; FIG. 5D, 10 nM", "result": 0.9, "unit": "fold"}, {"measurement": "fold change, GFP (Treated vs Non-Treated)", "setting": "TRE3G-GFP reporter gene [2]; FIG. 5D, 25 nM", "result": 1.0, "unit": "fold"}, {"measurement": "fold change, GFP (Treated vs Non-Treated)", "setting": "TRE3G-GFP reporter gene [2]; FIG. 5D, 50 nM", "result": 1.1, "unit": "fold"}, {"measurement": "fold change, GFP (Treated vs Non-Treated)", "setting": "TRE3G-GFP reporter gene [2]; FIG. 5D, 100 nM", "result": 5.3, "unit": "fold"}, {"measurement": "fold change, GFP (Treated vs Non-Treated)", "setting": "TRE3G-GFP reporter gene [2]; FIG. 5D, 200 nM", "result": 11.6, "unit": "fold"}, {"measurement": "fold change, GFP (Treated vs Non-Treated)", "setting": "TRE3G-GFP reporter gene [2]; FIG. 5D, 400 nM", "result": 17.5, "unit": "fold"}, {"measurement": "fold change, GFP (Treated vs Non-Treated)", "setting": "TRE3G-GFP reporter gene [2]; FIG. 5E, 10 nM", "result": 0.9, "unit": "fold"}, {"measurement": "fold change, GFP (Treated vs Non-Treated)", "setting": "TRE3G-GFP reporter gene [2]; FIG. 5E, 25 nM", "result": 0.9, "unit": "fold"}, {"measurement": "fold change, GFP (Treated vs Non-Treated)", "setting": "TRE3G-GFP reporter gene [2]; FIG. 5E, 50 nM", "result": 1.0, "unit": "fold"}, {"measurement": "fold change, GFP (Treated vs Non-Treated)", "setting": "TRE3G-GFP reporter gene [2]; FIG. 5E, 100 nM", "result": 1.0, "unit": "fold"}, {"measurement": "fold change, GFP (Treated vs Non-Treated)", "setting": "TRE3G-GFP reporter gene [2]; FIG. 5E, 200 nM", "result": 1.0, "unit": "fold"}, {"measurement": "fold change, GFP (Treated vs Non-Treated)", "setting": "TRE3G-GFP reporter gene [2]; FIG. 5E, 400 nM", "result": 1.0, "unit": "fold"}, {"measurement": "fold change, CXCR4 mRNA (Treated vs Non-Treated)", "setting": "CXCR4", "result": 3.5, "unit": "fold"}]}
